The source of these data is US8202908B1, “D-aspartic acid supplement” (priority 2008, dated 2012).

For experiment [1], the system named is adult male humans. In words: Oral DL-aspartic acid given to adult male humans for 21 days, blood hormone levels. The class given is in vivo, human. The note with it: adult males aged twenty to sixty; 10, 20 or 40 grams DL-aspartic acid per day orally in two doses for twenty-one days; versus baseline. Here is the method:
This example illustrates the effects of administering D-aspartic acid to adult male humans.
A group of nine adult males ranging in age from twenty to sixty is divided into three groups of three men each. The division is made so that each group contains a similar age distribution. Blood samples are taken and the levels of testosterone, growth hormone, and insulin-like growth factor 1 are measured.
The men in the first group orally ingest 10 grams of DL-aspartic acid (which includes 5 grams of D-aspartic acid) daily for twenty-one days. The amount is divided into two equal doses, one of which is taken in the morning and one of which is taken in the evening. The men in the second and third groups follow a similar procedure except the men in the second group orally ingest 20 grams of DL-aspartic acid (which includes 10 grams of D-aspartic acid) per day and the men in the third group orally ingest 40 grams of DL-aspartic acid (which includes 20 grams of D-aspartic acid) per day. Blood samples are then retaken.

Experiment [2] concerns animals. The settings on record: cited from earlier work.
Experiment [3] concerns pituitary. The settings on record: both in-vitro and in-vivo; cited from earlier work.
For experiment [4], the system named is testes. The settings on record: both in-vitro and in-vivo; cited from earlier work.
Experiment [5] deals with pituitary gland. The settings on record: both in-vitro and in-vivo; cited from earlier work.
The subject of experiment [6] is finishing pigs. The settings on record: finishing pigs fed with N-methyl-D-aspartate; cited from earlier work.

As to `NC(CC(=O)O)C(=O)O` (racemic) [DL-aspartic acid], in experiment [1], the “level of growth hormone in blood” value is reported as “significant increases”, the “level of insulin-like growth factor 1 in blood” value is “significant increases” and the “level of testosterone in blood” value was “significant increases”.
Take `N[C@H](CC(=O)O)C(=O)O` [D-aspartic acid]: in experiment [2], the “growth hormone levels in the animals” value was “increase” and the “testosterone levels in the animals” value is “increase”. The “release of luteinizing hormone from the pituitary” value in experiment [3] is on record as “stimulate the release”. Besides, in experiment [4], the “release of testosterone from the testes” value was “stimulate the release”. For the same molecule, in experiment [5], the “growth hormone production from the pituitary gland” value is “stimulate growth hormone production”.
For the molecule `CN[C@H](CC(=O)O)C(=O)O` [N-methyl-D-aspartate], in experiment [2], the “growth hormone levels in the animals” value is “increase” and the “testosterone levels in the animals” value is given as “increase”. Also, the growth rate entry in experiment [6] is on record as “increase in growth rate”. Moreover, the “growth hormone production from the pituitary gland” value in experiment [5] is “stimulate growth hormone production”.
